In paper PMC8035258 (ChemMedChem, 2021):
Read-outs that look alike come from different tables or passages of the source.

Key:
[1] = system: CII; conditions: read-out: CII IC50, cited from earlier work
[2] = system: 22Rv1 prostate cancer cells; conditions: read-out: 22Rv1 IC50, clinical agents; cited from earlier work
[3] = system: TNBC MDA-MB-468 cells; experiment: MTS cytotoxicity assay in MDA-MB-468 cells; format: cell-based; conditions: for SI (Selectivity Index): MDA-MB-468 over HEK293 cells; for IC50: read-out: MDA-MB-468 IC50, 72 hours, mean ±SD of n=3
[4] = system: 22Rv1 prostate cancer cells; experiment: MTS cytotoxicity assay in 22Rv1 prostate cancer cells; format: cell-based; conditions: for reduction of 22Rv1 cell viability: 100 μM, 48 hr treatment, MTS
[5] = system: low tumorigenic human endothelial kidney (HEK293) cells; experiment: MTS cytotoxicity assay in HEK293 cells; format: cell-based; conditions: Homo sapiens, HEK293, 72 h, read-out: HEK293 IC50
[6] = molecular target: Mitochondrial respiratory complex II (Mus musculus, UniProt Q8K2B3+Q9CQA3+Q9CXV1+Q9CZB0); experiment: Complex II inhibition assay; format: biochemical; conditions: for % Inhibition CII (100 μM) / inhibition at 100 µM: mouse liver mitochondria, mean ±SD of n = 4; for inhibition at 100 µM: read-out: % Inhibition CII (100 μM), 100 μM
[7] = system: TTK; conditions: 100 μM, KinomeScan; cited from earlier work
[8] = system: CII; conditions: read-out: CII IC50; rat heart mitochondria; cited from earlier work
[9] = system: IRAK1; conditions: 100 μM, KinomeScan; cited from earlier work
[10] = system: breast cancer; conditions: 200–300 mg/day, nine patients, stable disease for 4–8 months; cited from earlier work

Mitochondrial respiratory complex II, sequence (Q8K2B3 43-664): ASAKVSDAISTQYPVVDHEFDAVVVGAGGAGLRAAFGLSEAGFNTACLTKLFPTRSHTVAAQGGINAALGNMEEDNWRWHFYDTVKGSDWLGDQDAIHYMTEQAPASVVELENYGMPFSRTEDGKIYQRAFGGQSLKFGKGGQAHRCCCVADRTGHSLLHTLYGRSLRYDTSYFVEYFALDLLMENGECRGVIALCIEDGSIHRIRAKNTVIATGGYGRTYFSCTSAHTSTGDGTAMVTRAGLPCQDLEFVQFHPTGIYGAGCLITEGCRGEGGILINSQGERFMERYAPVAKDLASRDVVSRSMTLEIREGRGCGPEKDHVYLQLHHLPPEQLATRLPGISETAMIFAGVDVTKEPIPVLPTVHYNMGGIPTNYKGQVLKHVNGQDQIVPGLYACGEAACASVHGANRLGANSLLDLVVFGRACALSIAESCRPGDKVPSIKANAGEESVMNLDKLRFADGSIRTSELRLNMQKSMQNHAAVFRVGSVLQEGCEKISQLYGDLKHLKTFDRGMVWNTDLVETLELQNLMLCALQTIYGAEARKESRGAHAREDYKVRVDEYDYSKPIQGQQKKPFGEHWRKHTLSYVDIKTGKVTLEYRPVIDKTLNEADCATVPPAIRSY
Mitochondrial respiratory complex II, sequence (Q9CQA3 31-282): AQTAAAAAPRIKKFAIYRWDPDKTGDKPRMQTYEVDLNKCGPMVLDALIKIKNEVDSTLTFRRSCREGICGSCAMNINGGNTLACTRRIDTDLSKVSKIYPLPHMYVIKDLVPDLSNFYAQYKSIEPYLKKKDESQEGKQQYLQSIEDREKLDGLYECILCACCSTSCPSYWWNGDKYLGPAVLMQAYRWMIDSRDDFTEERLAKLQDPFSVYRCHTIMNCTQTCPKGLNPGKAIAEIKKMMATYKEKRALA
Mitochondrial respiratory complex II, sequence (Q9CZB0 30-169): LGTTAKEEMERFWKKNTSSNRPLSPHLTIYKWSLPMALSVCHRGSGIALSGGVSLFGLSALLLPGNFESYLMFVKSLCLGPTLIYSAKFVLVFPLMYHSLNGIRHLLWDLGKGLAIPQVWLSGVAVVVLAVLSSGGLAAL
Mitochondrial respiratory complex II, sequence (Q9CXV1 57-159): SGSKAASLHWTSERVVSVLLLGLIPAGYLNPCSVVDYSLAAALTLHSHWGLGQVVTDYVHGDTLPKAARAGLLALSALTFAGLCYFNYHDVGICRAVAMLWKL

Row | Compound | SI (Selectivity Index) [3] | reduction of 22Rv1 cell viability [4] [%] | IC50 [5] [µM] | inhibition at 100 µM [6] [%] | other results
1 | O=C(CC(=O)C(F)(F)F)c1cccs1 [TFFA, Thenoyltrifluoroacetone] | – | – | – | – | IC50 ([1]; control compound in CII assays): 30 µM
2 | CNC(=O)c1ccc(N2C(=S)N(c3cnc(C#N)c(C(F)(F)F)c3)C(=O)C23CCC3)cc1F [apalutamide] | – | – | – | – | IC50 [2]: 77 ± 17 µM
3 | O=S1(=O)N=C(NCc2ccc(OC(F)(F)F)cc2)Nc2ccc(Br)cc21 [Compound 30c, 7-Bromo-3-((4-(trifluoromethoxy)benzyl)amino)-4H-benzo[e][1,2,4] thiadiazine 1,1-dioxide] | 2.93 | 45 | 52.9 ± 1.8 | 21 | IC50 [3]: 18 ± 1.4 µM; % Inhibition CII (100 μM) [6]: 22 ±21.1%
4 | CC(O)c1cc(C(=O)N[C@@H](C)Cn2ccc(-c3ccc(C#N)c(Cl)c3)n2)[nH]n1 (stereo partly drawn) [darolutamide] | – | – | – | – | IC50 [2]: 46 ± 10 µM
5 | O=C(O)CC(=O)O [Malonate] | – | – | – | – | IC50 ([1]; competitive CII inhibitor): 40 µM
6 | CC(NC1=NS(=O)(=O)c2cc(F)ccc2N1)c1ccccc1 (stereo not drawn) [Compound 24a, 7-Fluoro-3-((1-phenylethyl)amino)-4H-benzo[e][1,2,4]thiadiazine 1,1-dioxide] | 10.2 | 34 | 42.6 ± 5.9 | 22 ± 9.9 | –
7 | Cc1c(C)c2c(c(C)c1OC(=O)CCC(=O)O)CC[C@@](C)(CCC[C@H](C)CCC[C@H](C)CCCC(C)C)O2 [α-TOS, α -Tocopheryl succinate] | – | – | – | – | IC50 [1]: 42 µM
8 | COc1ccc(CNC2=NS(=O)(=O)c3cc(Br)ccc3N2)cc1 [Compound 20c, 7-Bromo-3-((4-methoxybenzyl)amino)-4H-benzo[e][1,2,4]thiadiazine 1,1-dioxide] | 3.23 | 41 | 88 ± 12.3 | 64 ± 15.3 | IC50 [6]: 79.7 ± 4 µM
9 | COc1[nH]c(=O)c(C(=O)[C@@H](C)C[C@H](C)[C@@H](Cl)CCl)c(O)c1OC [Atpenin A5, atpenin A5] | – | – | – | – | IC50 ([1]; positive control): 0.0033 µM; IC50 ([1]; ubiquinone binding site (IIQ)): 0.0036 to 0.01 µM; inhibition at 0.1 µM ([6]; read-out: % inhibition of CII at 0.1 μM): 93%
10 | CC1=Nc2ccc(Cl)cc2S(=O)(=O)N1 [Diazoxide, 7-chloro-3-methyl-2H-1,2,4-benzothiadiazine 1,1-dioxide, reference compound] | 1.26 | – | 547 ± 34.1 | 9 | kinase inhibition [7]: 15%; effect to reduce cell viability of breast cancer cells ([3]; 100 μM up to 72 hours): no effect; IC50 [3]: 434 ± 26.2 µM; effect to reduce cell viability of prostate cancer cells ([4]; 100 μM up to 72 hours): no effect; IC50 [8]: 32 µM; IC50 [6]: 1236 ± 2.5 µM; % Inhibition CII (100 μM) ([6]; listed as DZX): no CII inhibition activity; kinase inhibition [9]: 9%; response rate [10]: 33%
11 | O=S1(=O)N=C(NCCCc2ccccc2)Nc2ccc(Br)cc21 [Compound 23c, 7-Bromo-3-((3-phenylpropyl)amino)-4H-benzo[e][1,2,4]thiadiazine 1,1-dioxide] | 7.75 | 42 | 71.8 ± 8.2 | 47 | % Inhibition CII (100 μM) [6]: 46 ±13.4%
12 | CC(NC1=NS(=O)(=O)c2ccc(Cl)cc2N1)c1ccccc1 (stereo not drawn) [Compound 24b, 6-Chloro-3-((1-phenylethyl)amino)-4H-benzo[e][1,2,4]thiadiazine 1,1-dioxide] | 2.72 | 50 | 118 ± 22.3 | 51 ± 13.9 | IC50 [6]: 89 ± 10.4 µM
